3 compounds from patent publication US8404704B2 (Alfa Wassermann S.p.A., priority 2003, dated 2013) can be followed below.

A short description of series [1]: in vivo. The arrangement: species or system Beagle female dogs. Conditions: female, beagle, dog, po; for Tmax: tmax (characterising range of the form). On the procedure: Twelve 20 week pure-bred Beagle female dogs weighing between 5.0 and 7.5 kg, have been divided into three groups of four dogs.
Each sample was transferred into an heparinized tube and was centrifuged; the plasma was divided into two 500 μl aliquots and frozen at −20° C.
(§1) Tmax=time at which the Cmax is reached;
(§2) AUC=area under the concentration-time curve calculated through the linear trapezoidal rule.

Series [2] can be described thus: Intrinsic dissolution test (USP 27 monograph 1087). It is filed as physicochemical. Conditions: phosphate buffer pH 7.4, 37°C; SLS 0.1%, 0.3%, 0.45% and absent.
Series [3] can be described thus: Reversible conversion of polymorphic forms with water content. The class given is physicochemical. Conditions: water absorbed from atmospheric humidity. The text has this: The product is hygroscopic and the obtained polymorphic form is reversible: the polymorphic form α absorbs water from atmospheric humidity, depending on the relative humidity and the exposure time. When the water content absorbed by the polymorphic form α becomes higher than 4.5%, polymorphous a converts to polymorphous β. This in its turn loses part of water by drying, changing into the polymorphic form α when a water content between […] is reached.

Series [4] is described as follows: in vivo. The arrangement: species or system Beagle female dogs. Conditions: dog; for Tmax / AUC(0-t) / AUC(0-inf) / Cmax: female, beagle, po; for AUC(0-t): AUC0-24 h; for AUC(0-inf): AUC0-inf. Here is the method: Sixteen 20 week pure-bred Beagle female dogs weighing between 5.0 and 7.5 kg, have been divided into four groups of four dogs.
Each sample was transferred into a heparinized tube and was centrifuged; the plasma was divided into 500 μl two aliquots and frozen at −20° C.
as §1, §2

Series [5] in a line: Intrinsic dissolution test (USP 27 monograph 1087). It is filed as physicochemical. The following applies: 0.1M aqueous phosphate buffer pH 7.4 with 0.45% sodium lauryl sulphate, 37°C. An excerpt:
The die-holder containing the compacted pellet was then mounted on a laboratory stirring device, immersed in a dissolution medium and rotated by means of the stirring device.
A compacted pellet was formed in the die with a single face of defined area exposed on the bottom of the die so that from 50% to 75% of the compacted pellet could dissolve in an appropriate dissolution medium.
The holder containing the die was mounted on a laboratory stirring device, immersed in a glass vessel containing a dissolution medium and rotated at a rotation speed of 100 rpm by means of the stirring device, while keeping the temperature of the dissolution medium at 37±0.5° C. The dissolution medium contained in the glass vessel consisted of 1000 ml of 0.1M aqueous phosphate buffer pH 7.4 containing 4.5 g of sodium lauryl sulphate (SLS) and was kept at 37±0.5° C. for the whole duration of the test.

Structures are written as SMILES.

Regarding `CO[C@H]1/C=C/O[C@@]2(C)Oc3c(C)c(O)c4c(O)c(c5c(nc6cc(C)ccn65)c4c3C2=O)NC(=O)/C(C)=C\C=C\[C@H](C)[C@H](O)[C@@H](C)[C@@H](O)[C@@H](C)[C@H](OC(C)=O)[C@@H]1C` [rifaximin α, Rifaximin], in the series “in vivo [1]”, the “AUC0-24h (characterising range of the form)” value was 0 to 100 ng·h/mL, the “AUC0-inf (characterising range of the form)” value (“AUC0-inf” below) lay within 10 to 24 ng·h/mL, the “Cmax (characterising range of the form)” value fell in the range of 0.0 to 10 ng/mL and the Tmax is 1 to 6 h. Besides, in “in vivo [1]” (100 mg/kg), the “AUC0-inf” value lay in the range of 0 to 110 ng·h/mL, the “Cmax (characterising range of the form)” value lay within 0.0 to 5.5 ng/mL and the “tmax (characterising range of the form)” value lay within 1.0 to 6 h. Also, in series [2], the “disintegration of the compacted pellet” value was not above 10 min. The “water content above which form α converts to form β” value in series [3] is “higher than 4.5%”. The Tmax in “in vivo [4]” (100 mg/kg, tmax) was found to be 2.5 h.

For the compound `CO[C@H]1/C=C/O[C@@]2(C)Oc3c(C)c(O)c4c(O)c(c5c(nc6cc(C)ccn65)c4c3C2=O)NC(=O)/C(C)=C\C=C\[C@H](C)[C@H](O)[C@@H](C)[C@@H](O)[C@@H](C)[C@H](OC(C)=O)[C@@H]1C` [rifaximin γ, Rifaximin], in “in vivo [1]”, the “AUC0-inf” value lay in the range of 0.0 to 22000 ng·h/mL. Further, in “in vivo [1]” (100 mg/kg), the “Cmax (characterising range of the form)” value fell in the range of 0.0 to 5000 ng/mL. Moreover, in “in vivo [1]” (100 mg/kg), the “tmax (characterising range of the form)” value lay in the range of 1.0 to 6.0 h. The AUC(0-t) in the series “in vivo [1]” (100 mg/kg, AUC0-24h (characterising range of the form)) is less than 22000 ng·h/mL; in “in vivo [4]” (25 mg/kg) it was 304 ng·h/mL; in “in vivo [4]” (300 mg/kg) it was 25000 ng·h/mL. Also, the maximum concentration (Cmax) in the series “in vivo [1]” (Cmax) came out at 1080 ng/mL; in the series “in vivo [4]” (25 mg/kg), 114 ng/mL; in “in vivo [4]” (300 mg/kg), 3150 ng/mL. The compound also gave an Intrinsic dissolution rate in series [5] of 0.1444 mg/min/cm^2. Further, the Rifaximin dissolved in series [5] (15 min) came to 2.46 mg/cm^2; in series [5] (30 min) it was 4.52 mg/cm^2; in series [5] (45 min), 6.44 mg/cm^2; in series [5] (60 min), 9.04 mg/cm^2. Also, the “dose dependency of exposure (in words)” value in the series “in vivo [4]” is on record as “tended to increase in an over-proportional way compared to the administered dose”. In addition, the figures for the AUC(0-inf) in “in vivo [4]” (25 mg/kg) and in the series “in vivo [4]” (300 mg/kg) were 548 ng·h/mL and 25500 ng·h/mL, respectively. Further, the Tmax in “in vivo [4]” (25 mg/kg, tmax) was found to be 1.5 h; in the series “in vivo [4]” (100 mg/kg) it was 2 h; in “in vivo [4]” (300 mg/kg, tmax) it was 3 h.

As to `CO[C@H]1/C=C/O[C@@]2(C)Oc3c(C)c(O)c4c(O)c(c5c(nc6cc(C)ccn65)c4c3C2=O)NC(=O)/C(C)=C\C=C\[C@H](C)[C@H](O)[C@@H](C)[C@@H](O)[C@@H](C)[C@H](OC(C)=O)[C@@H]1C` [rifaximin β, Rifaximin], in the series “in vivo [1]”, the “AUC0-24h (characterising range of the form)” value is 0 to 40 ng·h/mL, the “AUC0-inf” value fell in the range of 0 to 45 ng·h/mL, the “Cmax (characterising range of the form)” value was in the range of 0.0 to 40 ng/mL and the “tmax (characterising range of the form)” value fell in the range of 1 to 6 h. In “in vivo [1]” (100 mg/kg), the “AUC0-inf” value lay within 0.0 to 50 ng·h/mL, the “Cmax (characterising range of the form)” value was 0.0 to 3.7 ng/mL and the Tmax was 1 to 6 h. The compound further gave an AUC(0-t) in the series “in vivo [1]” (100 mg/kg, AUC0-t (characterising range of the form)) of less than 40 ng·h/mL. The Intrinsic dissolution rate in series [5] was 0.0147 mg/min/cm^2. This compound returned a Rifaximin dissolved in series [5] (15 min) of 0.28 mg/cm^2. Also, in series [5] (30 min), the Rifaximin dissolved is on record as 0.50 mg/cm^2. Further, the Rifaximin dissolved in series [5] (45 min) stood at 0.72 mg/cm^2. The compound further gave a Rifaximin dissolved in series [5] (60 min) of 0.94 mg/cm^2.

As a reminder, the Tmax is the time at which the peak concentration occurs. A word on the AUC(0-t): it is exposure summed from dosing to a finite time, without extrapolation to infinity. Broadly, the Cmax is the maximum level reached in the sampled fluid or tissue. By AUC(0-inf) is commonly meant the area under the concentration-time curve extrapolated to infinity. A low value points to less exposure.
